Results as given in patent publication US10035799B2, “COMT inhibiting methods and compositions” (Lieber Institute for Brain Development, priority 2015, dated 2018).

tested on: not given; experiment: not given; conditions: Russ, et al. 1999; cited from earlier work

| Structure (SMILES) | brain penetration |
| --- | --- |
| CCN(CC)C(=O)/C(C#N)=C/c1cc(O)c(O)c([N+](=O)[O-])c1 [entacapone] | negligible |
| Cc1ccc(C(=O)c2cc(O)c(O)c([N+](=O)[O-])c2)cc1 [tolcapone] | low but measurable |

biological target: T1, aromatic amino acid decarboxylase (AAAD) (Homo sapiens, UniProt P20711); experiment: not given; conditions: given with L-DOPA; Nutt, Woodward et al. 1985; cited from earlier work
T1 sequence (P20711 1-480): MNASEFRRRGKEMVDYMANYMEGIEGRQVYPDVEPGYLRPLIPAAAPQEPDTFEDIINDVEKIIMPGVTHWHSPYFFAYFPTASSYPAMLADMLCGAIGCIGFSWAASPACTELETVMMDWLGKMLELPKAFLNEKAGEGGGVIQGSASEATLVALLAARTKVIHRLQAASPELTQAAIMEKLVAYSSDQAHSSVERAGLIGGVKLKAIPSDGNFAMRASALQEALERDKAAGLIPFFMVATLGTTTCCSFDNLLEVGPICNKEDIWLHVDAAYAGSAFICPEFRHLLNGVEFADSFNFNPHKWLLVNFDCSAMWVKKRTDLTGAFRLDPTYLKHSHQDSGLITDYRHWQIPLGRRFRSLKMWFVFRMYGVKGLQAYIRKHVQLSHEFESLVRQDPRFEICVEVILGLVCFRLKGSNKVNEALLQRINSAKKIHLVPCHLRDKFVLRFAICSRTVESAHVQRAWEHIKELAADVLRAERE

| Structure (SMILES) | reduction of the efficacious L-DOPA dose |
| --- | --- |
| C[C@@](Cc1ccc(O)c(O)c1)(NN)C(=O)O [Carbidopa] | 60-80% |

biological target: T2, catechol-O-methyltransferase (COMT) (Homo sapiens, UniProt P21964); experiment: COMT inhibition assay (HTRF, production of S-adenosyl homocysteine); format: biochemical; conditions: recombinant human COMT, HTRF SAH production; MB-COMT or S-COMT not stated for Table 1
T2 construct: M51A variant) was expressed in HEK 293F cells
T2 sequence (P21964 52-271 limits assumed): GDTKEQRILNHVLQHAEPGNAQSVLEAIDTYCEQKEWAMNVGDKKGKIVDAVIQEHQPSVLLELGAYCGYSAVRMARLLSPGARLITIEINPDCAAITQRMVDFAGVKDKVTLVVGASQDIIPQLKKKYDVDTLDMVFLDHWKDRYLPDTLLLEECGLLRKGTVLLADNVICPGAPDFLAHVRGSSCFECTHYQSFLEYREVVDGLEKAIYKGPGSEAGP
Summary of the method: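 SAH formed from SAM (20 μM) measured by HTRF with SAH standard curve; pIC50 from 4-parameter fit. MB-COMT (M51A, HEK293F membranes, 62 ng/well): 1.5 μM dopamine, 40 min, 37° C.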

| Structure (SMILES) | Activity range (pIC50, COMT inhibition) |
| --- | --- |
| COCCCN1CCN(S(=O)(=O)c2ccc(O)c3ncccc23)CC1 [Example 89, 5-[4-(3-methoxypropyl)piperazin-1-yl]sulfonylquinolin-8-ol] | ++ (a pIC50 of from about great than 6 to 7) |
| O=S(=O)(c1ccc(O)c2ncccc12)C1CCN(Cc2ccc(F)cc2)CC1 [Example 35, 5-[[1-[(4-fluorophenyl)methyl]-4-piperidyl]sulfonyl]quinolin-8-ol] | ++ (a pIC50 of from about great than 6 to 7) |
| O=S(=O)(c1ccc(O)c2ncccc12)N1CCCC1c1ccccc1 (stereo not drawn) [Example 58, 5-(2-phenylpyrrolidin-1-yl)sulfonylquinolin-8-ol] | +++ (a pIC50 of above about 7) |
| O=S(=O)(c1ccc(O)c2ncccc12)C1CCNCC1 [Example 34, 5-(4-piperidylsulfonyl)quinolin-8-ol] | ++ (a pIC50 of from about great than 6 to 7) |
| O=S(=O)(c1ccc(O)c2ncccc12)N1CCC(c2ccc(F)cc2)C1 (stereo not drawn) [Example 62, 5-(3-(4-fluorophenyl)pyrrolidin-1-yl)sulfonylquinolin-8-ol] | +++ (a pIC50 of above about 7) |
| Cc1ccc(CNS(=O)(=O)c2ccc(O)c3ncccc23)cc1 [Example 44, 8-hydroxy-N-(4-methylbenzyl)quinoline-5-sulfonamide] | ++ (a pIC50 of from about great than 6 to 7) |
| O=S(=O)(c1ccc(O)c2ncccc12)N1CCc2cccnc2C1 [Example 67, 5-(6,8-dihydro-5H-1,7-naphthyridin-7-ylsulfonyl)quinolin-8-ol] | +++ (a pIC50 of above about 7) |
| O=S(=O)(c1ccc(O)c2ncccc12)N1CCN(c2cccc(Cl)c2Cl)CC1 [Example 97, 5-[4-(2,3-dichlorophenyl)piperazin-1-yl]sulfonylquinolin-8-ol] | ++ (a pIC50 of from about great than 6 to 7) |
| O=S(=O)(c1ccc(O)c2ncccc12)N1CCCC1 [Example 59, 5-pyrrolidin-1-ylsulfonylquinolin-8-ol] | +++ (a pIC50 of above about 7) |
| O=S(=O)(c1ccc(O)c2ncccc12)N1CCOCC1 [Example 64, 5-(4-morpholin-1-yl)sulfonylquinolin-8-ol] | ++ (a pIC50 of from about great than 6 to 7) |
| O=S(=O)(c1cc(Cl)cc(Cl)c1)c1ccc(O)c2ncccc12 [Example 8, 5-(3,5-dichlorophenyl)sulfonylquinolin-8-ol] | ++ (a pIC50 of from about great than 6 to 7) |
| CC(C)C1CCCN1S(=O)(=O)c1ccc(O)c2ncccc12 (stereo not drawn) [Example 78, 5-(2-isopropylpyrrolidin-1-yl)sulfonylquinolin-8-ol] | +++ (a pIC50 of above about 7) |
| CN1CCN(S(=O)(=O)c2ccc(O)c3ncccc23)CC1 [Example 60, 5-(4-methylpiperazin-1-yl)sulfonylquinolin-8-ol] | ++ (a pIC50 of from about great than 6 to 7) |
| COC(=O)N1CCN(S(=O)(=O)c2ccc(O)c3ncccc23)CC1 [Example 88, methyl 4-[(8-hydroxy-5-quinolyl)sulfonyl]piperazine-1-carboxylate] | +++ (a pIC50 of above about 7) |
| O=S(=O)(c1ccc(O)c2ncccc12)N1CCCC1c1ccncc1 (stereo not drawn) [Example 79, 5-[2-(4-pyridyl)pyrrolidin-1-yl]sulfonylquinolin-8-ol] | ++ (a pIC50 of from about great than 6 to 7) |
| O=S(=O)(c1ccc(O)c2ncccc12)N1CCN(c2ccc(C(F)(F)F)cc2)CC1 [Example 94, 5-[4-[4-(trifluoromethyl)phenyl]piperazin-1-yl]sulfonylquinolin-8-ol] | ++ (a pIC50 of from about great than 6 to 7) |

tested on: not given; experiment: not given; conditions: Nutt and Fellman 1984; cited from earlier work

| Structure (SMILES) | percentage of exogenously administered L-DOPA that reaches the brain [%] |
| --- | --- |
| N[C@@H](Cc1ccc(O)c(O)c1)C(=O)O [L-DOPA] | ~1 |

tested on: not given; experiment: not given; conditions: clinical use; Olanow and Watkins 2007; cited from earlier work

| Structure (SMILES) | liver injury |
| --- | --- |
| Cc1ccc(C(=O)c2cc(O)c(O)c([N+](=O)[O-])c2)cc1 [tolcapone] | serious liver injury, including three deaths |
